Values of other authors in patent US20250352610A1, “NOVEL COMPOSITION” (Arecor Limited, priority 2022, published 2025).

Settings: excipients of VancoReady; black box warning

- Fetal malformations in animal reproductive studies: cause fetal malformations
Compound: CC(=O)N[C@H](C)C(=O)O [N-acetyl-D-alanine]
